ChEMBL document CHEMBL6096703 (J Med Chem, 2025)
The source made the active and inactive calls. The rule behind the calls is not given here.

Key:
[1] = Sub-acute toxicity in Kunming mouse assessed as change LDH2 level at 100 to 300 mg/kg administered via gavage for 14 days; format: organism-based; settings: in vivo, po, 336 h, dose 100-300 mg/kg, time 14 day
[2] = target: Poly [ADP-ribose] polymerase 2 (Homo sapiens, UniProt Q9UGN5); experiment: Inhibition of PARP2 (unknown origin) at 1 uM preincubated with compound for 10 mins followed by DNA and NAD+ addition and measured after 60 mins by chemiluminescence based envision reader analysis relative to control; settings: time 70.0 min
MDA-MB-436 [3] = experiment: Antitumor activity against human MDA-MB-436 cells xenografted in female NOD/SCID mouse assessed as tumor regression rate at 1 mg/kg, po administered once every other day for 28 days relative to control; format: functional; settings: time 28.0 day
[4] = target: Poly [ADP-ribose] polymerase 1 (Homo sapiens, UniProt P09874); experiment: Inhibition of PARP1 (unknown origin) at 1 nM preincubated with compound for 10 mins followed by DNA and NAD+ addition and measured after 60 mins by chemiluminescence based envision reader analysis relative to control; settings: time 70.0 min
[5] = Sub-acute toxicity in Kunming mouse assessed as change LDH2 level at 30 to 100 mg/kg administered via gavage once a day for 14 days; format: organism-based; settings: in vivo, po, 336 h, dose 30-100 mg/kg, time 14 day
[6] = Tmax in male Balb/c mouse at 1 mg/kg, po measured upto 96 hrs by LC-MS/MS analysis; format: ADME, organism-based; settings: in vivo
[7] = Cmax in male Balb/c mouse at 1 mg/kg, iv measured upto 96 hrs by LC-MS/MS analysis; format: ADME, organism-based; settings: in vivo
[8] = Sub-acute toxicity in Kunming mouse assessed as change ASTL level at 100 to 300 mg/kg administered via gavage for 14 days; format: organism-based; settings: in vivo, po, 336 h, dose 100-300 mg/kg, time 14 day
[9] = Oral bioavailability in male Balb/c mouse at 1 mg/kg measured upto 96 hrs by LC-MS/MS analysis; format: ADME, organism-based; settings: in vivo
[10] = Acute toxicity in Kunming mouse assessed as change in cellular morphology of liver at 100 mg/kg administered once a day via gavage for 14 days by H and E staining based analysis; format: organism-based; settings: in vivo, po, 336 h, time 14 day
[11] = Acute toxicity in Kunming mouse assessed as change in lung structure at 300 mg/kg administered via gavage for 14 days by H and E staining based analysis; format: organism-based; settings: in vivo, po, 336 h, time 14 day
[12] = Sub-acute toxicity in Kunming mouse assessed as change ALB2 level at 100 to 300 mg/kg administered via gavage for 14 days; format: organism-based; settings: in vivo, po, 336 h, dose 100-300 mg/kg, time 14 day
[13] = Sub-acute toxicity in Kunming mouse assessed as change CK level at 30 to 100 mg/kg administered via gavage once a day for 14 days; format: organism-based; settings: in vivo, po, 336 h, dose 30-100 mg/kg, time 14 day
[14] = Sub-acute toxicity in Kunming mouse assessed as change ALB2 level at 30 to 100 mg/kg administered via gavage once a day for 14 days; format: organism-based; settings: in vivo, po, 336 h, dose 30-100 mg/kg, time 14 day
[15] = Apparent volume of distribution in male Balb/c mouse at 1 mg/kg, iv measured upto 96 hrs by LC-MS/MS analysis; format: ADME, organism-based; settings: male, Balb/c, in vivo, read-out: Vz
[16] = Half life in male Balb/c mouse at 1 mg/kg, iv measured upto 96 hrs by LC-MS/MS analysis; format: ADME, organism-based; settings: male, Balb/c, in vivo
MDA-MB-436 [17] = experiment: Antiproliferative activity against human MDA-MB-436 cells assessed as reduction in cell viability incubated for 7 days by CCK-8 assay; format: functional, cell-based; settings: MDA-MB-436, 168 h
[18] = Acute toxicity in Kunming mouse assessed as change in cellular morphology of heart at 100 mg/kg administered once a day via gavage for 14 days by H and E staining based analysis; format: organism-based; settings: in vivo, po, 336 h, time 14 day
MDA-MB-436 [19] = experiment: Antitumor activity against luciferase tagged human MDA-MB-436 cells xenografted in female NOD-SCID mouse assessed as median survival time at 3 mg/kg, po administered once a day for 34 days; format: functional; settings: time 34 day
[20] = Acute toxicity in Kunming mouse assessed as change in kidney structure at 300 mg/kg administered via gavage for 14 days by H and E staining based analysis; format: organism-based; settings: in vivo, po, 336 h, time 14 day
[21] = Acute toxicity in Kunming mouse assessed as change in spleen structure at 300 mg/kg administered via gavage for 14 days by H and E staining based analysis; format: organism-based; settings: in vivo, po, 336 h, time 14 day
[22] = Sub-acute toxicity in Kunming mouse assessed as change UREAL level at 100 to 300 mg/kg administered via gavage for 14 days; format: organism-based; settings: in vivo, po, 336 h, dose 100-300 mg/kg, time 14 day
[23] = Sub-acute toxicity in Kunming mouse assessed as change CK level at 100 to 300 mg/kg administered via gavage for 14 days; format: organism-based; settings: in vivo, po, 336 h, dose 100-300 mg/kg, time 14 day
[24] = Sub-acute toxicity in Kunming mouse assessed as change CREA2 level at 30 to 100 mg/kg administered via gavage once a day for 14 days; format: organism-based; settings: in vivo, po, 336 h, dose 30-100 mg/kg, time 14 day
[25] = Half life in male Balb/c mouse at 1 mg/kg, po measured upto 96 hrs by LC-MS/MS analysis; format: ADME, organism-based; settings: male, Balb/c, in vivo
[26] = Drug concentration in blood of male Balb/c mouse at 10 mg/kg, po measured at 6 hr postdose; format: ADME, organism-based; settings: read-out: Ct
[27] = Acute toxicity in Kunming mouse assessed as change in heart structure at 300 mg/kg administered via gavage for 14 days by H and E staining based analysis; format: organism-based; settings: in vivo, po, 336 h, time 14 day
[28] = Sub-acute toxicity in Kunming mouse assessed as change ASTL level at 30 to 100 mg/kg administered via gavage once a day for 14 days; format: organism-based; settings: in vivo, po, 336 h, dose 30-100 mg/kg, time 14 day
[29] = Acute toxicity in Kunming mouse assessed as change in cellular morphology of kidney at 100 mg/kg administered once a day via gavage for 14 days by H and E staining based analysis; format: organism-based; settings: in vivo, po, 336 h, time 14 day
[30] = Acute toxicity in Kunming mouse assessed as change in cellular morphology of lung at 100 mg/kg administered once a day via gavage for 14 days by H and E staining based analysis; format: organism-based; settings: in vivo, po, 336 h, time 14 day
[31] = Sub-acute toxicity in Kunming mouse assessed as change ALTL level at 30 to 100 mg/kg administered via gavage once a day for 14 days; format: organism-based; settings: in vivo, po, 336 h, dose 30-100 mg/kg, time 14 day
[32] = Sub-acute toxicity in Kunming mouse assessed as change UREAL level at 30 to 100 mg/kg administered via gavage once a day for 14 days; format: organism-based; settings: in vivo, po, 336 h, dose 30-100 mg/kg, time 14 day
[33] = Drug concentration in brain of male Balb/c mouse at 10 mg/kg, po measured at 6 hr postdose; format: ADME, organism-based; settings: read-out: Ct
[34] = Acute toxicity in Kunming mouse assessed as change in liver structure at 300 mg/kg administered via gavage for 14 days by H and E staining based analysis; format: organism-based; settings: in vivo, po, 336 h, time 14 day
[35] = Tmax in male Balb/c mouse at 1 mg/kg, iv measured upto 96 hrs by LC-MS/MS analysis; format: ADME, organism-based; settings: in vivo
[36] = AUC(0 to t) in male Balb/c mouse at 1 mg/kg, iv measured upto 96 hrs by LC-MS/MS analysis; format: ADME, organism-based; settings: male, Balb/c, in vivo
[37] = Cmax in male Balb/c mouse at 1 mg/kg, po measured upto 96 hrs by LC-MS/MS analysis; format: ADME, organism-based; settings: in vivo
[38] = Sub-acute toxicity in Kunming mouse assessed as change ALTL level at 100 to 300 mg/kg administered via gavage for 14 days; format: organism-based; settings: in vivo, po, 336 h, dose 100-300 mg/kg, time 14 day
[39] = Clearance in male Balb/c mouse at 1 mg/kg, iv measured upto 96 hrs by LC-MS/MS analysis; format: ADME, organism-based; settings: male, Balb/c, in vivo
[40] = Acute toxicity in Kunming mouse assessed as change in cellular morphology of spleen at 100 mg/kg administered once a day via gavage for 14 days by H and E staining based analysis; format: organism-based; settings: in vivo, po, 336 h, time 14 day
[41] = Clearance in male Balb/c mouse at 1 mg/kg, po measured upto 96 hrs by LC-MS/MS analysis; format: ADME, organism-based; settings: male, Balb/c, in vivo
[42] = AUC(0 to t) in male Balb/c mouse at 1 mg/kg, po measured upto 96 hrs by LC-MS/MS analysis; format: ADME, organism-based; settings: male, Balb/c, in vivo
[43] = Drug concentration in blood of male Balb/c mouse at 10 mg/kg, po measured at 1 hr postdose; format: ADME, organism-based; settings: read-out: Ct
[44] = Apparent volume of distribution in male Balb/c mouse at 1 mg/kg, po measured upto 96 hrs by LC-MS/MS analysis; format: ADME, organism-based; settings: in vivo
[45] = Sub-acute toxicity in Kunming mouse assessed as change CREA2 level at 100 to 300 mg/kg administered via gavage for 14 days; format: organism-based; settings: in vivo, po, 336 h, dose 100-300 mg/kg, time 14 day
[46] = Drug concentration in brain of male Balb/c mouse at 10 mg/kg, po measured at 1 hr postdose; format: ADME, organism-based; settings: read-out: Ct

Sequence of Poly [ADP-ribose] polymerase 2 (Q9UGN5 whole entry): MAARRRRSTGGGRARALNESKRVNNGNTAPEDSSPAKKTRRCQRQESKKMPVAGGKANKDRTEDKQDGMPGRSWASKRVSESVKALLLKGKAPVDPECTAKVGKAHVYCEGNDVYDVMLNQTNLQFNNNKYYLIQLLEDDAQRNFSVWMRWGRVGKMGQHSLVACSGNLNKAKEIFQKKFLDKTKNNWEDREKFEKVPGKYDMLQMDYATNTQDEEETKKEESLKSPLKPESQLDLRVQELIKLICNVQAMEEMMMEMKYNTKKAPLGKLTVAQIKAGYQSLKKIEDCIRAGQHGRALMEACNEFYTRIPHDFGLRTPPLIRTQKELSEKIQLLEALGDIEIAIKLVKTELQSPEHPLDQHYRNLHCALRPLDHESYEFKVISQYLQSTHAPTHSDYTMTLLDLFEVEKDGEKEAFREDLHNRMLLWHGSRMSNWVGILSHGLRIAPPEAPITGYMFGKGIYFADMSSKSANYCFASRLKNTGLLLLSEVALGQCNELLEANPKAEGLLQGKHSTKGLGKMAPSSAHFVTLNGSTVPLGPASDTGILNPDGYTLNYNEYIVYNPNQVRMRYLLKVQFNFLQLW
Sequence of Poly [ADP-ribose] polymerase 1 (P09874 whole entry): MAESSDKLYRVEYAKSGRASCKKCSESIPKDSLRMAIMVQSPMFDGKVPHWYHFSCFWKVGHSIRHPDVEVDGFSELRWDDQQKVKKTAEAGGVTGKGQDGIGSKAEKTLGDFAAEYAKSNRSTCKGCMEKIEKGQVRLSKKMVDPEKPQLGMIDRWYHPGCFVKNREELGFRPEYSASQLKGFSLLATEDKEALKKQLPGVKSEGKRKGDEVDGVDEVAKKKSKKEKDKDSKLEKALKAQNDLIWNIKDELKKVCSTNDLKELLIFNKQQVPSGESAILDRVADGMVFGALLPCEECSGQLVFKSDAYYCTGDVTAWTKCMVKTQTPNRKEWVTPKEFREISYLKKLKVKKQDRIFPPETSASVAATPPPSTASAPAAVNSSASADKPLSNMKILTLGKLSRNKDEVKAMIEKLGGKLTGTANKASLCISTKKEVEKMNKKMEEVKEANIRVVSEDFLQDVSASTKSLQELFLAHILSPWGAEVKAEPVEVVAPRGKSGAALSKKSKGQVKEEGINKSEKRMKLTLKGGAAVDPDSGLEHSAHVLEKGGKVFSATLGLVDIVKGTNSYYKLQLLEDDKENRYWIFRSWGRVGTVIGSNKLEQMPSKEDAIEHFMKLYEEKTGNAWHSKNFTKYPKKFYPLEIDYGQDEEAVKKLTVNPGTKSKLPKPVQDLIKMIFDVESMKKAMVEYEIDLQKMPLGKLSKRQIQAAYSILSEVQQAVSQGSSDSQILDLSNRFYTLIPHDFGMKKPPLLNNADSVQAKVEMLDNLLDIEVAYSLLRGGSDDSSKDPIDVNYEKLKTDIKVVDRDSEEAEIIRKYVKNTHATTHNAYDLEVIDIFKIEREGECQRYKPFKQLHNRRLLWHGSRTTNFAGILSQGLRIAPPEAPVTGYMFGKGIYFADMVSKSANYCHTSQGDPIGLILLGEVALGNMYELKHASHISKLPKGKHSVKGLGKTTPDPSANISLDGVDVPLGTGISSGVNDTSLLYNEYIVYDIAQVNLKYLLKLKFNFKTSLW

## CNC(=O)c1ccc(N2CCN(Cc3ccc4nc(C)c(=O)[nH]c4c3F)CC2)c(F)n1 [AZD-9574]
[1]
  Activity: Non-toxic
[2]
  inhibition: 38.1%
MDA-MB-436 [3]
  Activity: inactive
[4]
  inhibition: 63.7%
[5]
  Activity: Non-toxic
[6]
  Tmax: 0.33 h
[7]
  Cmax: 941 ng/mL
[8]
  Activity: Non-toxic
[9]
  bioavailability: 85.5%
[10]
  Activity: Non-toxic
[11]
  Activity: Non-toxic
[12]
  Activity: Non-toxic
[13]
  Activity: Non-toxic
[14]
  Activity: Non-toxic
[15]
  Vd: 3.64 L/kg
[16]
  half-life: 14.7 h
MDA-MB-436 [17]
  IC50: 6.7 nM
[18]
  Activity: Non-toxic
MDA-MB-436 [19]
  Survival: >65 days
[20]
  Activity: Non-toxic
[21]
  Activity: Non-toxic
[22]
  Activity: Non-toxic
[23]
  Activity: Non-toxic
[24]
  Activity: Non-toxic
[25]
  half-life: 8.81 h
[26]
  concentration at 6 h: 186 ng/mL
[27]
  Activity: Non-toxic
[28]
  Activity: Non-toxic
[29]
  Activity: Non-toxic
[30]
  Activity: Non-toxic
[31]
  Activity: Non-toxic
[32]
  Activity: Non-toxic
[33]
  concentration at 6 h: 48 ng/g
[34]
  Activity: Non-toxic
[35]
  Tmax: 4.8 min
[36]
  AUC(0-t) at 96 h: 4890 ng·h/mL
[37]
  Cmax: 594 ng/mL
[38]
  Activity: Non-toxic
[39]
  clearance: 3.17 mL/min/kg
[40]
  Activity: Non-toxic
[41]
  CL/F: 4 mL/min/kg
[42]
  AUC(0-t) at 96 h: 4180 ng·h/mL
[43]
  concentration at 1 h: 3780 ng/mL
[44]
  Vz: 3.03 L/kg
[45]
  Activity: Non-toxic
[46]
  concentration at 1 h: 412 ng/g
